Measurements published in patent publication US12252488B2 (Nimbus Saturn, Inc., priority 2021, dated 2025).

Target: T1, HPK1 (Homo sapiens, UniProt Q92918)
T1 construct: purchased Invitrogen
Experiment: HPK1 biochemical enzyme assay (microfluidic mobility shift assay)
Settings: 1000 uM (1 mM) ATP; Caliper mobility shift; 1.5 nM HPK1; 30 min preincubation; read-out: HPK1 1000UMATP caliper IC50
How it was run: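 Microfluidic mobility-shift readout with 1.5 nM HPK1 in pH 7.4 buffer; compounds (ten-point curves, top 3 μM final) preincubated 30 min with enzyme/substrate. Reaction started with 1 mM ATP and 1 μM substrate plus 5 mM MgCl2, run 60 min at RT. IC50 values binned into activity classes.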

T1 sequence (Q92918 whole entry): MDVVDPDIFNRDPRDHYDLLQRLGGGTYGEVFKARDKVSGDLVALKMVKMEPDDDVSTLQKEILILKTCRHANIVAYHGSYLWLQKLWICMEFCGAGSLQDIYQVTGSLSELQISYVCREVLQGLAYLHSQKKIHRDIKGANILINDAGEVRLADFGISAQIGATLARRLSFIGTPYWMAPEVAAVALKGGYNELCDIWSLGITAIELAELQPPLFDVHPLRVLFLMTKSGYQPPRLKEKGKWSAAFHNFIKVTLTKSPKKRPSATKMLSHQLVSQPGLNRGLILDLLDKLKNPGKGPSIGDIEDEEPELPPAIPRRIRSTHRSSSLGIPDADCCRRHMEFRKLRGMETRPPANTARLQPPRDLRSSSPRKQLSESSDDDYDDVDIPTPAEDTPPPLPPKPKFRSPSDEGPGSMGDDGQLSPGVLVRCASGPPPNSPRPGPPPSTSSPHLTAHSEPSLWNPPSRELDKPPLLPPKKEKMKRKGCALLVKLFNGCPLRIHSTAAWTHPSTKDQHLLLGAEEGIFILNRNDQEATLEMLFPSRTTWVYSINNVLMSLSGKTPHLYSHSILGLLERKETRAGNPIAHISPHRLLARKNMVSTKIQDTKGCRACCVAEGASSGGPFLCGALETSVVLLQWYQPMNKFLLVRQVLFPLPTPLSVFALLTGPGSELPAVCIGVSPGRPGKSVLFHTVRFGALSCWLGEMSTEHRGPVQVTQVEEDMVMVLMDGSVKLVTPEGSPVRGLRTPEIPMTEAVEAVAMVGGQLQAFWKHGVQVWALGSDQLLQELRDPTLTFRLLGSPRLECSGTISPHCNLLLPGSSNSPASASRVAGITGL

Compared with `Cc1cc(F)c(-c2cc(Nc3ccc(N4CCC(O)CC4)cn3)c3c(=O)[nH]ccc3n2)cc1C(=O)N1CCCCC1` [I-167, 2-[2-fluoro-4-methyl-5-(piperidine-1-carbonyl)phenyl]-4-[[5-(4-hydroxy-1-piperidyl)-2-pyridyl]amino]-6H-1,6-naphthyridin-5-one], `COc1cc(-c2cc(Nc3ccc(N4CCC(O)CC4)cn3)c3c(=O)[nH]ccc3n2)c(F)cc1C(=O)N1CCCCC1` [I-112, 2-[2-fluoro-5-methoxy-4-(piperidine-1-carbonyl)phenyl]-4-[[5-(4-hydroxy-1-piperidyl)-2-pyridyl]amino]-6H-1,6-naphthyridin-5-one] is higher in IC50: ≤ 100 nM for the first, > 1000 nM for the second. The first is the more potent here.

First: Cc1cc(-c2cc(Nc3ccc(N4CCC(O)CC4)cn3)c3c(=O)[nH]ccc3n2)c(F)cc1CN1CCCCC1 [I-194, 2-[2-fluoro-5-methyl-4-(1-piperidyl-methyl)phenyl]-4-[[5-(4-hydroxy-1-piperidyl)-2-pyridyl]amino]-6H-1,6-naphthyridin-5-one]
Second: COc1cc(-c2cc(Nc3ccc(N4CCC(O)CC4)cn3)c3c(=O)[nH]ccc3n2)c(F)cc1CN1CCCCC1 [I-216, 2-[2-fluoro-5-methoxy-4-(1-piperidyl-methyl)phenyl]-4-[[5-(4-hydroxy-1-piperidyl)-2-pyridyl]amino]-6H-1,6-naphthyridin-5-one]
The IC50 of the first is lower: ≤ 100 nM for the first, > 1000 nM for the second.

First: O=C(Nc1ccc(-c2cc(Nc3ccc(N4CCC(O)CC4)cn3)c3c(=O)[nH]ccc3n2)c(F)c1)[C@H]1C[C@H]2CC[C@@H]1C2 (single isomer, unassigned) [I-261]
Second: CC1(C(=O)Nc2ccc(-c3cc(Nc4ccc(N5CCC(O)CC5)cn4)c4c(=O)[nH]ccc4n3)c(F)c2)CCC1 [I-211, N-[3-fluoro-4-[4-[[5-(4-hydroxy-1-piperidyl)-2-pyridyl]amino]-5-oxo-6H-1,6-naphthyridin-2-yl]phenyl]-1-methyl-cyclobutane-carboxamide]
The IC50 of the first is lower: ≤ 100 nM for the first, > 1000 nM for the second. The first is the more potent here.

`CCc1c[nH]c(=O)c2c(Nc3ccc(N4CCC(O)CC4)cn3)cc(-c3c(F)cccc3F)nc12` [I-49, 2-(2,6-difluorophenyl)-8-ethyl-4-((5-(4-hydroxypiperidin-1-yl)pyridin-2-yl)amino)-1,6-naphthyridin-5(6H)-one] and `O=c1[nH]ccc2nc(-c3c(F)cccc3F)cc(Nc3ccc(N4CCNCC4)cn3)c12` [I-6, 2-(2,6-difluoro-phenyl)-4-[(5-piperazin-1-yl-2-pyridyl)amino]-6H-1,6-naphthyridin-5-one] cannot be ordered by IC50: 100 to 1000 nM for the first, ≤ 100 nM for the second.

`CS(=O)(=O)Cc1ccc(Nc2cc(-c3c(F)cccc3F)nc3cc[nH]c(=O)c23)nc1` [I-30, 2-(2,6-difluoro-phenyl)-4-[[5-(methyl-sulfonyl-methyl)-2-pyridyl]amino]-6H-1,6-naphthyridin-5-one] and `CC(C)c1cc(Nc2ccc(S(C)(=O)=O)cn2)c2c(=O)[nH]ccc2n1` [I-23, 2-isopropyl-4-[(5-methyl-sulfonyl-2-pyridyl)amino]-6H-1,6-naphthyridin-5-one] fall in the same range of IC50: 100 to 1000 nM for the first, 100 to 1000 nM for the second.

`COc1cc(-c2cc(Nc3ccc(N4CCCCC4)cn3)c3c(=O)[nH]ccc3n2)c(F)cc1C(=O)N1CCCCC1` [I-232, 2-[2-fluoro-5-methoxy-4-(piperidine-1-carbonyl)phenyl]-4-[[5-(1-piperidyl)-2-pyridyl]amino]-6H-1,6-naphthyridin-5-one] and `COc1cc(-c2cc(Nc3ccc(C#N)cn3)c3c(=O)[nH]ccc3n2)c(F)cc1C(=O)N1CCCCC1` [I-242, 6-[[2-[2-fluoro-5-methoxy-4-(piperidine-1-carbonyl)phenyl]-5-oxo-6H-1,6-naphthyridin-4-yl]amino] pyridine-3-carbonitrile] cannot be ordered by IC50: ≤ 100 nM for the first, 100 to 1000 nM for the second.

`CNC1(c2ccc(F)c(-c3cc(Nc4ccc(N5CCC(O)CC5)cn4)c4c(=O)[nH]ccc4n3)c2)CC1` [I-221, 2-[2-fluoro-5-[1-(methyl-amino)cyclopropyl]phenyl]-4-[[5-(4-hydroxy-1-piperidyl)-2-pyridyl]amino]-6H-1,6-naphthyridin-5-one] and `O=c1[nH]ccc2nc(-c3cc(C4CC4)ccc3F)cc(Nc3ccc(N4CCC(O)CC4)cn3)c12` [I-43, 2-(5-cyclopropyl-2-fluoro-phenyl)-4-[[5-(4-hydroxy-1-piperidyl)-2-pyridyl]amino]-6H-1,6-naphthyridin-5-one] cannot be ordered by IC50: 100 to 1000 nM for the first, ≤ 100 nM for the second.

Compared with `O=c1[nH]ccc2nc(C3CCC3)cc(Nc3ccc(N4CCC(O)CC4)cn3)c12` [I-26, 2-cyclobutyl-4-[[5-(4-hydroxy-1-piperidyl)-2-pyridyl]amino]-6H-1,6-naphthyridin-5-one], `O=c1[nH]ccc2nc(N3CC[C@@H](O)C3)cc(Nc3ccc(N4CCC(O)CC4)cn3)c12` [I-87, 4-[[5-(4-hydroxy-1-piperidyl)-2-pyridyl]amino]-2-[(3R)-3-hydroxy-pyrrolidin-1-yl]-6H-1,6-naphthyridin-5-one] is lower in IC50: > 1000 nM for the first, 100 to 1000 nM for the second. The second is the more potent here.

`O=c1[nH]ccc2nc(-c3ccc4c(c3F)CCC4O)cc(Nc3ccc(N4CCC(O)CC4)cn3)c12` (stereo not drawn) [I-203, 2-(4-fluoro-1-hydroxy-indan-5-yl)-4-[[5-(4-hydroxy-1-piperidyl)-2-pyridyl]amino]-6H-1,6-naphthyridin-5-one] and `NC(=O)c1ccc(-c2cc(Nc3ccc(N4CCC(O)CC4)cn3)c3c(=O)[nH]ccc3n2)c(F)c1` [I-72, 3-fluoro-4-[4-[[5-(4-hydroxy-1-piperidyl)-2-pyridyl]amino]-5-oxo-6H-1,6-naphthyridin-2-yl] benzamide] cannot be ordered by IC50: ≤ 100 nM for the first, 100 to 1000 nM for the second.

`COc1cc(OC)cc(-c2cc(Nc3ccc(N4CCC(O)CC4)cn3)c3c(=O)[nH]ccc3n2)c1` [I-100, 2-(3,5-dimethoxyphenyl)-4-[[5-(4-hydroxy-1-piperidyl)-2-pyridyl]amino]-6H-1,6-naphthyridin-5-one] and `CC(C)c1ccc(F)c(-c2cc(Nc3ccc(N4CCC(O)CC4)cn3)c3c(=O)[nH]ccc3n2)c1` [I-48, 2-(2-fluoro-5-isopropyl-phenyl)-4-[[5-(4-hydroxy-1-piperidyl)-2-pyridyl]amino]-6H-1,6-naphthyridin-5-one] cannot be ordered by IC50: ≤ 100 nM for the first, 100 to 1000 nM for the second.

`CC1(C(=O)Nc2ccc(-c3cc(Nc4ccc(N5CCNCC5)cn4)c4c(=O)[nH]ccc4n3)c(F)c2)CCC1` [I-219, N-[3-fluoro-4-[5-oxo-4-[(5-piperazin-1-yl-2-pyridyl)amino]-6H-1,6-naphthyridin-2-yl]phenyl]-1-methyl-cyclobutane-carboxamide] and `CCC1(C(=O)Nc2ccc(-c3cc(Nc4ccc(N5CCNCC5)cn4)c4c(=O)[nH]ccc4n3)c(F)c2)CCC1` [I-240, 1-ethyl-N-[3-fluoro-4-[5-oxo-4-[(5-piperazin-1-yl-2-pyridyl)amino]-6H-1,6-naphthyridin-2-yl]phenyl] cyclobutane carboxamide] cannot be ordered by IC50: ≤ 100 nM for the first, 100 to 1000 nM for the second.

`O=c1[nH]ccc2nc(-c3cc4c(cc3F)CCC4N3CC4(CCOC4)C3)cc(Nc3ccc(N4CCC(O)CC4)cn3)c12` (stereo not drawn) [I-260, 2-[6-fluoro-3-(6-oxa-2-azaspiro [3.4]octan-2-yl)indan-5-yl]-4-[[5-(4-hydroxy-1-piperidyl)-2-pyridyl]amino]-6H-1,6-naphthyridin-5-one] and `O=c1[nH]ccc2nc(-c3cc(CN4CC5(COC5)C4)ccc3F)cc(Nc3ccc(N4CCC(O)CC4)cn3)c12` [I-250] cannot be ordered by IC50: 100 to 1000 nM for the first, ≤ 100 nM for the second.

`O=c1[nH]ccc2nc(N3CCCC3)cc(Nc3ccc(N4CCC(O)CC4)cn3)c12` [I-84, 4-[[5-(4-hydroxy-1-piperidyl)-2-pyridyl]amino]-2-pyrrolidin-yl-6H-1,6-naphthyridin-5-one] and `CC1CCCCN1C(=O)c1ccc(-c2cc(Nc3ccc(N4CCC(O)CC4)cn3)c3c(=O)[nH]ccc3n2)c(F)c1` (stereo not drawn) [I-130, 2-[2-fluoro-4-(2-methyl-piperidine-1-carbonyl)phenyl]-4-[[5-(4-hydroxy-1-piperidyl)-2-pyridyl]amino]-6H-1,6-naphthyridin-5-one] cannot be ordered by IC50: 100 to 1000 nM for the first, ≤ 100 nM for the second.

First: COc1cc(-c2cc(Nc3ccc(N4CCNCC4)cn3)c3c(=O)[nH]ccc3n2)c(F)cc1NC(=O)C1CCCCC1 [I-208, N-[5-fluoro-2-methoxy-4-[5-oxo-4-[(5-piperazin-1-yl-2-pyridyl)amino]-6H-1,6-naphthyridin-2-yl]phenyl] cyclohexane carboxamide]
Second: COc1cc(-c2cc(Nc3cc(C4CCOC4)[nH]n3)c3c(=O)[nH]ccc3n2)c(F)cc1C(=O)N1CCCCC1 (stereo not drawn) [I-225, 2-[2-fluoro-5-methoxy-4-(piperidine-1-carbonyl)phenyl]-4-[(5-THF-3-yl-1H-pyrazol-3-yl)amino]-6H-1,6-naphthyridin-5-one]
The IC50 of the first is lower: 100 to 1000 nM for the first, > 1000 nM for the second. The first is the more potent here.

First: Cc1cnccc1-c1cc(Nc2ccc(N3CCC(O)CC3)cn2)c2c(=O)[nH]ccc2n1 [I-280, 4-[[5-(4-hydroxy-1-piperidyl)-2-pyridyl]amino]-2-(3-methyl-4-pyridyl)-6H-1,6-naphthyridin-5-one]
Second: CN(C)Cc1ccc(F)c(-c2cc(Nc3ccc(N4CCC(O)CC4)cn3)c3c(=O)[nH]ccc3n2)c1 [I-117, 2-[5-[(dimethyl-amino)methyl]-2-fluoro-phenyl]-4-[[5-(4-hydroxy-1-piperidyl)-2-pyridyl]amino]-6H-1,6-naphthyridin-5-one]
The IC50 of the first is higher: > 1000 nM for the first, 100 to 1000 nM for the second.

`CCNC(=O)c1ccc(Nc2nc(C(C)C)nc3cc[nH]c(=O)c23)cc1` [I-10, N-ethyl-4-[(2-isopropyl-5-oxo-6H-pyrido[4,3-d]pyrimidin-4-yl)amino]benzamide] and `CC1CCCN(C(=O)c2ccc(-c3cc(Nc4ccc(N5CCC(O)CC5)cn4)c4c(=O)[nH]ccc4n3)c(F)c2)C1` (stereo not drawn) [I-135, 2-[2-fluoro-4-(3-methyl-piperidine-1-carbonyl)phenyl]-4-[[5-(4-hydroxy-1-piperidyl)-2-pyridyl]amino]-6H-1,6-naphthyridin-5-one] cannot be ordered by IC50: 100 to 1000 nM for the first, ≤ 100 nM for the second.

For `O=C(c1ccc(-c2cc(Nc3ccc(N4CCC(O)CC4)cn3)c3c(=O)[nH]ccc3n2)c(F)c1)N1CCCC1CO` (stereo not drawn) [I-147, 2-[2-fluoro-4-[2-(hydroxy-methyl)pyrrolidine-1-carbonyl]phenyl]-4-[[5-(4-hydroxy-1-piperidyl)-2-pyridyl]amino]-6H-1,6-naphthyridin-5-one], the IC50 was 100 to 1000 nM.
